Laboratory results as given in US12133838B2, “Homotaurine-enriched compositions and methods of use for animal health” (FB Maria srl, priority 2015, dated 2024).

Tests used:
[1] = test system: elderly dogs; assay: cognitive learning test in a maze, elderly dogs; format: in vivo, dog; details: for Average number of wrong tries of the aged dogs able to pass the learning test (average score) / Percentage of the aged dogs able to pass the learning test: dogs more than 10 years
Source text: (§1) The experiment began by selecting two groups of elderly dogs (age more than 10 years, 16 subjects per group) and two groups of young adult dogs (between 3 and 6 years of age, 6 subjects per group), who were divided randomly balancing them per age, seniority, and size. The dogs underwent a cognitive learning tests (Spatial reversal learning is impaired by aging in pet dogs, P. Mongillo et al., Age, 2013, 35 (6): 2273-2282), in a simple maze built to this trial. Passing the test consisted in the dog's ability to learn to get out of the labyrinth in the direction that he himself had chosen in the first successful attempt. The number of attempts has been the test score: the lower the number of attempts, better cognitive performance. Immediately after the test, two groups of dogs (one old and one young) started to receive food integration of homotaurine capsules. Homotaurine at was administered orally once daily (PO SID) at a dose of 1 g/subject. After 15 days the dogs underwent a memory test (learning result application of first test) and, if they have passed the test, to a subsequent reverse learning test, which consisted in learning to exit the labyrinth from the opposite direction to that previously learned within a defined number of trials. After 4 months of homotaurine supplementation, initial learning test was repeated, with the same modalities of the initial test. The first evaluable results regarding the comparison between the cognitive learning tests, carried out on two groups of dogs over 10 years of age, a period in which aging-correlated brain behavior changes can be observed.

[2] = test system: young adult dogs; assay: cognitive learning test in a maze, young adult dogs; format: in vivo, dog; details: young dogs (under 6 years of age), homotaurine 1 g/subject PO SID
Source text: as §1, with “After” for “After 15 days the dogs underwent a memory test (learning result application of first test) and, if they have passed the test, to a subsequent reverse learning test, which consisted in learning to exit the labyrinth from the opposite direction to that previously learned within a defined number of trials. After”, “test.” for “test. The first evaluable results regarding the comparison between the cognitive learning tests, carried out on two groups of dogs over 10 years of age, a period in which aging-correlated brain behavior changes can be observed.”

[3] = 1° test, before start of homotaurine
[4] = 2° test, after 4 months of homotaurine 1 g/subject PO SID

NCCCS(=O)(=O)O [homotaurine, 3-amino-1-propanesulfonic acid]
Average number of wrong tries of the aged dogs able to pass the learning test (average score) [1, 3]: 6.67
Percentage of the aged dogs able to pass the learning test [1, 3]: 75%
Average number of wrong tries of the aged dogs able to pass the learning test (average score) [1, 4]: 5.67
Percentage of the aged dogs able to pass the learning test [1, 4]: 75%
change of average score, second versus first test ([1]; aged dogs, about four months of homotaurine 1 g/subject PO SID): −1.0
failures in the learning test ([1]; first test, before start of homotaurine, aged dogs): 25%
failures in the learning test ([1]; second test, about four months later, 1 g/subject PO SID, aged dogs): 25%
change of average score [2]: −2.6
